Square brackets hold non-standard residues; d marks the D form. Peptide text beside a SMILES is read from it. * marks the point of attachment. X6 = CC(=O)N(C(=O)[C@H](C)N)[C@H](C(=O)*)C(C)C; X8 = C[C@H](N)/C(F)=C/[C@@H](Cc1ccccc1)C(=O)*; X1 = CC(C)[C@H](/C=C(\Cl)[C@H](C)N)C(=O)*; X7 = C[C@H](/C=C(\Cl)[C@H](C)N)C(=O)*; X5 = C[C@H](/C=C(\F)[C@H](C)N)C(=O)*; X4 = CC(=O)N(CC(=O)*)C(=O)[C@H](C)N; NMeA = CN[C@@H](C)C(=O)O
Experiments:
[1] = test system: UMR106-06; assay: Compound was evaluated for the accumulation of cyclic AMP in UMR10606 (rat osteosarcoma) cells.; assay type: functional, cell-based; details: Rattus norvegicus, UMR106-06
[2] = test system: SAOS-2; assay: Compound was evaluated for the accumulation of cyclic AMP in SaOS-2 (human osteosarcoma) cells.; assay type: functional, cell-based; details: Homo sapiens, SAOS-2
[3] = test system: OK-1; assay: Displacement of [125I]-chick PTHrP-(1-36)-NH2 from opossum (OK-1) kidney cells; assay type: functional
[4] = test system: SAOS-2; assay: Compound was evaluated for the intrinsic activity for accumulation of cyclic AMP in SaOS-2 (human osteosarcoma) cells.; assay type: functional
[5] = test system: UMR106-06; assay: Compound was evaluated for the intrinsic activity for accumulation of cyclic AMP in UMR10606 (rat osteosarcoma) cells.; assay type: functional
[6] = test system: OK-1; assay: Accumulation of cyclic AMP in OK-1 cells.; assay type: functional, cell-based, opossum; details: opossum, OK-1
[7] = test system: OK-1; assay: Compound was evaluated for the intrinsic activity for accumulation of cyclic AMP in OK-1 cells.; assay type: functional, opossum

Compound	EC50 [1]	EC50 [2]	pKD [3]	Intrinsic activity [4]	Intrinsic activity [5]	EC50 [6]	Intrinsic activity [7]
CC[C@H](C)[C@H](NC(=O)[C@H](CCC(=O)O)NC(=O)[C@H](CO)NC(=O)[C@@H](NC(=O)[C@H](C)NC)C(C)C)C(=O)N[C@@H](CCC(N)=O)C(=O)N[C@@H](CC(C)C)C(=O)N[C@@H](CCSC)C(=O)N[C@@H](Cc1c[nH]cn1)C(=O)N[C@@H](CC(N)=O)C(=O)N[C@@H](CC(C)C)C(=O)NCC(=O)N[C@@H](CCCCN)C(=O)N[C@@H](Cc1c[nH]cn1)C(=O)N[C@@H](CC(C)C)C(=O)N[C@@H](CC(N)=O)C(=O)N[C@@H](CO)C(=O)N[C@@H](CCSC)C(=O)N[C@@H](CCC(=O)O)C(=O)N[C@@H](CCCN=C(N)N)C(=O)N[C@H](C(=O)N[C@@H](CCC(=O)O)C(=O)N[C@@H](Cc1c[nH]c2ccccc12)C(=O)N[C@@H](CC(C)C)C(=O)N[C@@H](CCCN=C(N)N)C(=O)N[C@@H](CCCCN)C(=O)N[C@@H](CCCCN)C(=O)N[C@@H](CC(C)C)C(=O)N[C@@H](CCC(N)=O)C(=O)N[C@@H](CC(=O)O)C(=O)N[C@H](C(=O)N[C@@H](Cc1c[nH]cn1)C(=O)N[C@@H](CC(N)=O)C(=O)N[C@@H](Cc1ccccc1)C(=O)N[C@H](C(=O)N[C@@H](C)C(N)=O)C(C)C)C(C)C)C(C)C (H-[NMeA]VSEIQLMHNLGKHLNSMERVEWLRKKLQDVHNFVA-NH2)	2.6 nM	1.6 nM	8.5	1	1	7.4 nM	0.9
CC[C@H](C)[C@H](NC(=O)[C@H](CCC(=O)O)NC(=O)[C@H](CO)NC(=O)[C@@H](/C=C(\Cl)[C@H](C)N)C(C)C)C(=O)N[C@@H](CCC(N)=O)C(=O)N[C@@H](CC(C)C)C(=O)N[C@@H](CCSC)C(=O)N[C@@H](Cc1c[nH]cn1)C(=O)N[C@@H](CC(N)=O)C(=O)N[C@@H](CC(C)C)C(=O)NCC(=O)N[C@@H](CCCCN)C(=O)N[C@@H](Cc1c[nH]cn1)C(=O)N[C@@H](CC(C)C)C(=O)N[C@@H](CC(N)=O)C(=O)N[C@@H](CO)C(=O)N[C@@H](CCSC)C(=O)N[C@@H](CCC(=O)O)C(=O)N[C@@H](CCCN=C(N)N)C(=O)N[C@H](C(=O)N[C@@H](CCC(=O)O)C(=O)N[C@@H](Cc1c[nH]c2ccccc12)C(=O)N[C@@H](CC(C)C)C(=O)N[C@@H](CCCN=C(N)N)C(=O)N[C@@H](CCCCN)C(=O)N[C@@H](CCCCN)C(=O)N[C@@H](CC(C)C)C(=O)N[C@@H](CCC(N)=O)C(=O)N[C@@H](CC(=O)O)C(=O)N[C@H](C(=O)N[C@@H](Cc1c[nH]cn1)C(=O)N[C@@H](CC(N)=O)C(=O)N[C@@H](Cc1ccccc1)C(=O)N[C@H](C(=O)N[C@@H](C)C(N)=O)C(C)C)C(C)C)C(C)C (X1-SEIQLMHNLGKHLNSMERVEWLRKKLQDVHNFVA-NH2)	0.65 nM	0.85 nM	8.9	1	1	7.9 nM	1.1
CC[C@H](C)[C@H](NC(=O)[C@H](CCC(=O)O)NC(=O)[C@H](CO)NC(=O)CN(C(C)=O)C(=O)[C@H](C)N)C(=O)N[C@@H](CCC(N)=O)C(=O)N[C@@H](CC(C)C)C(=O)N[C@@H](CCSC)C(=O)N[C@@H](Cc1c[nH]cn1)C(=O)N[C@@H](CC(N)=O)C(=O)N[C@@H](CC(C)C)C(=O)NCC(=O)N[C@@H](CCCCN)C(=O)N[C@@H](Cc1c[nH]cn1)C(=O)N[C@@H](CC(C)C)C(=O)N[C@@H](CC(N)=O)C(=O)N[C@@H](CO)C(=O)N[C@@H](CCSC)C(=O)N[C@@H](CCC(=O)O)C(=O)N[C@@H](CCCN=C(N)N)C(=O)N[C@H](C(=O)N[C@@H](CCC(=O)O)C(=O)N[C@@H](Cc1c[nH]c2ccccc12)C(=O)N[C@@H](CC(C)C)C(=O)N[C@@H](CCCN=C(N)N)C(=O)N[C@@H](CCCCN)C(=O)N[C@@H](CCCCN)C(=O)N[C@@H](CC(C)C)C(=O)N[C@@H](CCC(N)=O)C(=O)N[C@@H](CC(=O)O)C(=O)N[C@H](C(=O)N[C@@H](Cc1c[nH]cn1)C(=O)N[C@@H](CC(N)=O)C(=O)N[C@@H](Cc1ccccc1)C(=O)N[C@H](C(=O)N[C@@H](C)C(N)=O)C(C)C)C(C)C)C(C)C (X4-SEIQLMHNLGKHLNSMERVEWLRKKLQDVHNFVA-NH2)	958 nM	–	7.1	–	0.8	117 nM	0.2
CC[C@H](C)[C@H](NC(=O)[C@H](CCC(=O)O)NC(=O)[C@H](CO)NC(=O)[C@H](C)/C=C(\F)[C@H](C)N)C(=O)N[C@@H](CCC(N)=O)C(=O)N[C@@H](CC(C)C)C(=O)N[C@@H](CCSC)C(=O)N[C@@H](Cc1c[nH]cn1)C(=O)N[C@@H](CC(N)=O)C(=O)N[C@@H](CC(C)C)C(=O)NCC(=O)N[C@@H](CCCCN)C(=O)N[C@@H](Cc1c[nH]cn1)C(=O)N[C@@H](CC(C)C)C(=O)N[C@@H](CC(N)=O)C(=O)N[C@@H](CO)C(=O)N[C@@H](CCSC)C(=O)N[C@@H](CCC(=O)O)C(=O)N[C@@H](CCCN=C(N)N)C(=O)N[C@H](C(=O)N[C@@H](CCC(=O)O)C(=O)N[C@@H](Cc1c[nH]c2ccccc12)C(=O)N[C@@H](CC(C)C)C(=O)N[C@@H](CCCN=C(N)N)C(=O)N[C@@H](CCCCN)C(=O)N[C@@H](CCCCN)C(=O)N[C@@H](CC(C)C)C(=O)N[C@@H](CCC(N)=O)C(=O)N[C@@H](CC(=O)O)C(=O)N[C@H](C(=O)N[C@@H](Cc1c[nH]cn1)C(=O)N[C@@H](CC(N)=O)C(=O)N[C@@H](Cc1ccccc1)C(=O)N[C@H](C(=O)N[C@@H](C)C(N)=O)C(C)C)C(C)C)C(C)C (X5-SEIQLMHNLGKHLNSMERVEWLRKKLQDVHNFVA-NH2)	13 nM	–	8.2	–	0.95	9.1 nM	0.6
CC[C@H](C)[C@H](NC(=O)[C@H](CCC(=O)O)NC(=O)[C@H](CO)NC(=O)[C@H](C(C)C)N(C(C)=O)C(=O)[C@H](C)N)C(=O)N[C@@H](CCC(N)=O)C(=O)N[C@@H](CC(C)C)C(=O)N[C@@H](CCSC)C(=O)N[C@@H](Cc1c[nH]cn1)C(=O)N[C@@H](CC(N)=O)C(=O)N[C@@H](CC(C)C)C(=O)NCC(=O)N[C@@H](CCCCN)C(=O)N[C@@H](Cc1c[nH]cn1)C(=O)N[C@@H](CC(C)C)C(=O)N[C@@H](CC(N)=O)C(=O)N[C@@H](CO)C(=O)N[C@@H](CCSC)C(=O)N[C@@H](CCC(=O)O)C(=O)N[C@@H](CCCN=C(N)N)C(=O)N[C@H](C(=O)N[C@@H](CCC(=O)O)C(=O)N[C@@H](Cc1c[nH]c2ccccc12)C(=O)N[C@@H](CC(C)C)C(=O)N[C@@H](CCCN=C(N)N)C(=O)N[C@@H](CCCCN)C(=O)N[C@@H](CCCCN)C(=O)N[C@@H](CC(C)C)C(=O)N[C@@H](CCC(N)=O)C(=O)N[C@@H](CC(=O)O)C(=O)N[C@H](C(=O)N[C@@H](Cc1c[nH]cn1)C(=O)N[C@@H](CC(N)=O)C(=O)N[C@@H](Cc1ccccc1)C(=O)N[C@H](C(=O)N[C@@H](C)C(N)=O)C(C)C)C(C)C)C(C)C (X6-SEIQLMHNLGKHLNSMERVEWLRKKLQDVHNFVA-NH2)	15 nM	–	7.9	–	1	9.9 nM	0.8
CC[C@H](C)[C@H](NC(=O)[C@H](CCC(=O)O)NC(=O)[C@H](CO)NC(=O)[C@H](C)/C=C(\Cl)[C@H](C)N)C(=O)N[C@@H](CCC(N)=O)C(=O)N[C@@H](CC(C)C)C(=O)N[C@@H](CCSC)C(=O)N[C@@H](Cc1c[nH]cn1)C(=O)N[C@@H](CC(N)=O)C(=O)N[C@@H](CC(C)C)C(=O)NCC(=O)N[C@@H](CCCCN)C(=O)N[C@@H](Cc1c[nH]cn1)C(=O)N[C@@H](CC(C)C)C(=O)N[C@@H](CC(N)=O)C(=O)N[C@@H](CO)C(=O)N[C@@H](CCSC)C(=O)N[C@@H](CCC(=O)O)C(=O)N[C@@H](CCCN=C(N)N)C(=O)N[C@H](C(=O)N[C@@H](CCC(=O)O)C(=O)N[C@@H](Cc1c[nH]c2ccccc12)C(=O)N[C@@H](CC(C)C)C(=O)N[C@@H](CCCN=C(N)N)C(=O)N[C@@H](CCCCN)C(=O)N[C@@H](CCCCN)C(=O)N[C@@H](CC(C)C)C(=O)N[C@@H](CCC(N)=O)C(=O)N[C@@H](CC(=O)O)C(=O)N[C@H](C(=O)N[C@@H](Cc1c[nH]cn1)C(=O)N[C@@H](CC(N)=O)C(=O)N[C@@H](Cc1ccccc1)C(=O)N[C@H](C(=O)N[C@@H](C)C(N)=O)C(C)C)C(C)C)C(C)C (X7-SEIQLMHNLGKHLNSMERVEWLRKKLQDVHNFVA-NH2)	5 nM	–	8.9	–	1	5.5 nM	1
CC[C@H](C)[C@H](NC(=O)[C@H](CCC(=O)O)NC(=O)[C@H](CO)NC(=O)[C@@H](/C=C(\F)[C@H](C)N)Cc1ccccc1)C(=O)N[C@@H](CCC(N)=O)C(=O)N[C@@H](CC(C)C)C(=O)N[C@@H](CCSC)C(=O)N[C@@H](Cc1c[nH]cn1)C(=O)N[C@@H](CC(N)=O)C(=O)N[C@@H](CC(C)C)C(=O)NCC(=O)N[C@@H](CCCCN)C(=O)N[C@@H](Cc1c[nH]cn1)C(=O)N[C@@H](CC(C)C)C(=O)N[C@@H](CC(N)=O)C(=O)N[C@@H](CO)C(=O)N[C@@H](CCSC)C(=O)N[C@@H](CCC(=O)O)C(=O)N[C@@H](CCCN=C(N)N)C(=O)N[C@H](C(=O)N[C@@H](CCC(=O)O)C(=O)N[C@@H](Cc1c[nH]c2ccccc12)C(=O)N[C@@H](CC(C)C)C(=O)N[C@@H](CCCN=C(N)N)C(=O)N[C@@H](CCCCN)C(=O)N[C@@H](CCCCN)C(=O)N[C@@H](CC(C)C)C(=O)N[C@@H](CCC(N)=O)C(=O)N[C@@H](CC(=O)O)C(=O)N[C@H](C(=O)N[C@@H](Cc1c[nH]cn1)C(=O)N[C@@H](CC(N)=O)C(=O)N[C@@H](Cc1ccccc1)C(=O)N[C@H](C(=O)N[C@@H](C)C(N)=O)C(C)C)C(C)C)C(C)C (X8-SEIQLMHNLGKHLNSMERVEWLRKKLQDVHNFVA-NH2)	26 nM	–	8.6	–	0.08	> 1000 nM	<0.1

Source: ChEMBL document CHEMBL1159136, “Dipeptide mimetics can substitute for the receptor activation domain resulting in highly potent analogues of hPTH(136)” (Bioorg Med Chem Lett, 1996)
